Activity calls are given as the source filed them. No rule for the calls is given here.
These compounds were tested against Peptidyl-prolyl cis-trans isomerase FKBP1A (Homo sapiens) (UniProt P62942) (assay: FKBP12 binders, biophysical, NMR detection (AID 608)). Conditions: NMR binding, purified FKBP12.
Peptidyl-prolyl cis-trans isomerase FKBP1A (Homo sapiens), sequence (P62942 whole entry, looked up): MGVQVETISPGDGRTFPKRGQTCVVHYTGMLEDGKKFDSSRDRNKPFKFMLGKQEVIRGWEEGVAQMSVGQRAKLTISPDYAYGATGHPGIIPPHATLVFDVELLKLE
In the case of `O=C(O[C@@H]1Cc2c(O)cc(O)cc2O[C@@H]1c1cc(=O)c(O)c2c(O)c(O)cc([C@H]3Oc4cc(O)cc(O)c4C[C@H]3O)c2c1)c1cc(O)c(O)c(O)c1`, the Kd is reported as > 4 mM (inactive). In the case of `CC1=NN2C(=N)/C(=C\c3cccs3)C(=O)N=C2S1`, the Kd is reported as > 4 mM (inactive). In the case of `CC(=O)CC1CCCCN1` (stereo not drawn), the Kd is reported as > 4 mM (inactive). For `CN(c1ccccc1C(=O)N1CCOCC1)S(C)(=O)=O`, the Kd was > 4 mM (inactive). For `COc1ccc2ccc(=O)oc2c1`, the Kd was > 4 mM (inactive). In the case of `CC(C)(C)NC(=O)N1CCC(C(=O)O)CC1`, the Kd is reported as > 4 mM (inactive). For `Cc1[nH]ccc2c1[nH]c1cc(=O)ccc12`, the Kd was > 4 mM (inactive). `CS(=O)(=O)N1CCC(C(=O)NC2CCCC2)CC1` was tested, and the Kd was > 4 mM (inactive). With `Nc1ccc2nccnc2c1` the Kd was > 4 mM (inactive). For `O=C(O)C1CSC(c2cc3ccccc3nc2Cl)N1` (stereo not drawn), the Kd was > 4 mM (inactive). For `CC(=O)Nc1ccc(S(=O)(=O)NC2=NCCS2)cc1`, the Kd was > 4 mM (inactive). For `CS(=O)(=O)NN=C1CCCCC1`, the Kd was > 4 mM (inactive). In the case of `Cc1occc1C(=O)N1CCN(S(C)(=O)=O)CC1`, the Kd is reported as > 4 mM (inactive). For `O=[N+]([O-])c1ccc2c(c1)N([O-])C1(CCCCC1)[N+]2=O`, the Kd was > 4 mM (inactive). `CN1C2CCC1CC(OC(=O)C(CO)c1ccccc1)C2` (stereo not drawn) was tested, and the Kd was > 4 mM (inactive). For `Cc1ccc(C(=O)Nc2ccncc2)o1`, the Kd was > 4 mM (inactive). With `C=C1C2CC[C@@]3(C)[C@H](c4ccoc4)OC(=O)C[C@]13O[C@H]1CC(=O)C(C)(C)C(CC(=O)OC)C21C` (stereo partly drawn) the Kd was > 4 mM (inactive). `O=C(O)c1cccnc1N1CCOCC1` was tested, and the Kd was > 4 mM (inactive). For `Cc1nc2nc(COc3ccccc3)nn2c(C)c1Cl`, the Kd was > 4 mM (inactive). `O=C1N=C(N2CCOCC2)S/C1=C\c1cccnc1` was tested, and the Kd was > 4 mM (inactive). `O=C(O)CSc1cccc2cccnc12` was tested, and the Kd was > 4 mM (inactive). `NC(=O)c1cc(Cl)c(C(N)=O)cc1Cl` was tested, and the Kd was > 4 mM (inactive). For `CCOc1ccc(OCC(=O)N2CCOCC2)cc1`, the Kd was “inactive”. `Nc1[nH]c(=S)[nH]c(=O)c1-c1ccccc1` was tested, and the Kd was > 4 mM (inactive). In the case of `O=C(CCc1ccc(O)cc1)c1c(O)cc(O)cc1O[C@@H]1O[C@H](CO)[C@@H](O)[C@H](O)[C@H]1O`, the Kd is reported as > 4 mM (inactive). `COc1ccc(-c2cc(=O)c3c(O)cc(O[C@H]4O[C@H](CO[C@@H]5O[C@@H](C)[C@H](O)[C@@H](O)[C@H]5O)[C@@H](O)[C@H](O)[C@H]4O)cc3o2)cc1` was tested, and the Kd was > 4 mM (inactive). With `CCOC(=O)C1CCNCC1` the Kd was > 4 mM (inactive). `COc1cc2c(cc1-c1coc3c4c(c(OC)cc3c1=O)OC(C)(C)C=C4)OCO2` was tested, and the Kd was > 4 mM (inactive). With `O=C(O)CCC(=O)c1c[nH]c2ccccc12` the Kd was > 4 mM (inactive). With `C=C1C2CC[C@@]3(C)[C@H](c4ccoc4)OC(=O)C[C@]13O[C@H]1CC(=O)C(C)(C)[C@H](C(O)C(=O)OC)[C@@]21C` (stereo partly drawn) the Kd was > 4 mM (inactive). `Nc1ccc(F)cc1F` was tested, and the Kd was > 4 mM (inactive). `O=C(Nc1ccc2c(c1)OCO2)c1cccc(F)c1` was tested, and the Kd was > 4 mM (inactive). For `CC(=O)c1cc2c(cc1O)OC(C)(C)C=C2`, the Kd was > 4 mM (inactive). For `COc1ccccc1NC(C)=O`, the Kd was > 4 mM (inactive). `CNc1nnc(Cc2csc(N)n2)s1` was tested, and the Kd was > 4 mM (inactive). For `N#CCCn1c(=O)oc2ccccc21`, the Kd was > 4 mM (inactive). `Cc1cc(=O)cc(C)n1NC(N)=S` was tested, and the Kd was > 4 mM (inactive). For `NS(=O)(=O)c1ccc(NC(=O)c2cccs2)cc1`, the Kd was > 4 mM (inactive). With `O=[N+]([O-])c1c[n+]([O-])n(-c2ccccc2)n1` the Kd was > 4 mM (inactive). `CCN(CC)c1nc2n(c(=O)n1)CCO2` was tested, and the Kd was > 4 mM (inactive). `Nc1cncc(C(=O)O)c1` was tested, and the Kd was > 4 mM (inactive). In the case of `CN(C)C(=O)Nc1ccc(F)cc1F`, the Kd is reported as > 4 mM (inactive). `COc1ccc2[nH]cc(CN(C)C)c2c1` was tested, and the Kd was > 4 mM (inactive). For `CC(C)=NNC(=O)C(=O)Nc1ccc(F)cc1`, the Kd was > 4 mM (inactive). `CCCNC(CC(=O)Nc1cccnc1)C(=O)O` (stereo not drawn) was tested, and the Kd was > 4 mM (inactive). In the case of `O=c1c(O)c(-c2ccc(O)cc2O)oc2cc(O)cc(O)c12`, the Kd is reported as > 4 mM (inactive). With `Cc1nc(NC(=O)c2cccnc2)ccc1Br` the Kd was > 4 mM (inactive). `CC(O)c1nc2ccccc2[nH]1` (stereo not drawn) was tested, and the Kd was > 4 mM (inactive). With `COc1ccc(S(=O)(=O)N2CCC(C(N)=O)CC2)cc1` the Kd was > 4 mM (inactive). For `CN1CCc2c(sc(N)c2C#N)C1`, the Kd was > 4 mM (inactive). In the case of `NC(=O)Cc1nc2ccccc2[nH]1`, the Kd is reported as > 4 mM (inactive). With `O=C(Nc1ccccc1)N1CCOCC1` the Kd was > 4 mM (inactive). In the case of `CC(=O)NC1(NC(C)=O)CCN(C)CC1`, the Kd is reported as > 4 mM (inactive). With `OCCN1CCN(C(=S)c2ccc(Cl)cc2)CC1` the Kd was > 4 mM (inactive). For `OCc1sccc1-n1cccc1`, the Kd was > 4 mM (inactive). With `CC(C)=CC(=O)Nc1ccccc1Br` the Kd was > 4 mM (inactive). In the case of `O=S1(=O)C=CC(Nc2ccccc2)C1` (stereo not drawn), the Kd is reported as > 4 mM (inactive). For `COc1c2ccoc2c(OC)c2oc(=O)ccc12`, the Kd was > 4 mM (inactive). In the case of `COC(=O)c1cncc(C(=O)OC)c1`, the Kd is reported as > 4 mM (inactive). With `O=C(Nc1ccon1)c1ccc(Cl)s1` the Kd was > 4 mM (inactive). `CC(=O)NN1C(=O)c2cccc3cccc(c23)C1=O` was tested, and the Kd was > 4 mM (inactive). With `O=C1NC(=O)C(=Cc2cccs2)C(=O)N1` the Kd was > 4 mM (inactive). In the case of `Nn1c(CN2CCCCC2)nc2ccccc2c1=O`, the Kd is reported as > 4 mM (inactive). For `O=c1[nH]c(NCCO)nnc1Cc1ccccc1`, the Kd was > 4 mM (inactive). In the case of `Cc1[nH]c2ccccc2c1C=Nn1cncn1`, the Kd is reported as > 4 mM (inactive). In the case of `CC(=O)O[C@@H]1C[C@@]2(C)[C@H](c3ccoc3)C[C@H]3O[C@]32[C@]2(C)C(=O)C(O)=C3C(C)(C)C(=O)C=C[C@]3(C)C12` (stereo partly drawn), the Kd is reported as > 4 mM (inactive). With `CCNS(=O)(=O)c1cc(Br)ccc1OC` the Kd was > 4 mM (inactive). In the case of `CC1(C)CC[C@]2(C)CC[C@]3(C)C(=CCC4[C@@]5(C)CC[C@H](O)C(C)(C)C5CC[C@]43C)C2C1` (stereo partly drawn), the Kd is reported as > 4 mM (inactive). For `Cc1ccc2cccc(OC(=O)N3CCCC3)c2n1`, the Kd was > 4 mM (inactive). `COC(=O)[C@H]1[C@H]2C[C@H]3c4[nH]c5ccccc5c4CCN3C[C@H]2CC[C@@H]1O` was tested, and the Kd was > 4 mM (inactive). `Cc1ccsc1/C=c1\sc2ncnn2c1=O` was tested, and the Kd was > 4 mM (inactive). In the case of `CC[C@H]1CN2CCC1C[C@@H]2[C@@H](O)c1ccnc2ccc(OC)cc12` (stereo partly drawn), the Kd is reported as > 4 mM (inactive). For `COCc1cc(C)nc2sc(C(=O)OC)c(N)c12`, the Kd was > 4 mM (inactive). `COC(=O)c1ccccc1N(C)S(C)(=O)=O` was tested, and the Kd was > 4 mM (inactive). In the case of `OC[C@@H](O)[C@@H](O[C@@H]1O[C@H](CO)[C@@H](O)[C@H](O)[C@H]1O)[C@H](O)[C@@H](O)CO`, the Kd is reported as > 4 mM (inactive). In the case of `CC(=O)Nc1cc(O)cc(O)c1`, the Kd is reported as > 4 mM (inactive). In the case of `NC(C(=O)O)C(O)c1ccccc1` (stereo not drawn), the Kd is reported as > 4 mM (inactive). With `Oc1cc(O)cc(/C=C/c2ccccc2)c1` the Kd was > 4 mM (inactive). With `OC[C@@H]1CCCN2CCCC[C@H]12` the Kd was > 4 mM (inactive). `CN(C)c1nc(N)nc(Cn2ccnc2)n1` was tested, and the Kd was > 4 mM (inactive). `O=C(c1cc2ccccc2o1)N1CCOCC1` was tested, and the Kd was “inactive”. For `COc1ccc2c3c([nH]c2c1)C(C)=NCC3`, the Kd was > 4 mM (inactive). With `CNC(=O)Cn1c(=O)n(C)c2ccccc21` the Kd was > 4 mM (inactive).

— PubChem BioAssay AID608 (Sanford-Burnham Center for Chemical Genomics, 2007)
